This note sets out measurements from patent US7129351B2, “Pyrimido compounds having antiproliferative activity” (Hoffmann-La Roche Inc., priority 2002, dated 2006).

One series deals with T1, Src (p60^c-src) (Homo sapiens, UniProt P12931).
T1 construct: purchased Upstate (UBI)
The series can be described thus: SRC-Inhibitor-Assay (homogenous time-resolved fluorescence kinase assay). It is filed as biochemical. Particulars: for IC50: ATP 5 μM, enzyme 2.5 U/mL, pre-incubated 15 min at 15° C., read-out: IC50 (μM) - Enzyme Inhibition Assay, Src. The protocol:
The activity of the compounds according to this invention as inhibitors for the src-family tyrosine kinases was shown by using the following assay.
SRC-Inhibitor-Assay Parameters:
whereby both peptides were synthesized by an optimized solid phase peptide synthesis protocol (Merrifield (1962) Fed. Proc. Fed. Amer. Soc Exp. Biol. 21, 412) on an Zinsser SMP350 peptide synthesizer. Shortly, the peptide was assembled on 160 mg (22.8 μmol scale) of a Rink-Linker modified polystyrene solid phase by repeatedly conjugating a twenty fold excess of aminoacids each protected by temporary piperidine labile Fmoc- and permanent acid labile tert-Bu-, BOC- and O-tert-Bu-groups depending on the side chain function. The substrate sequence AEEEIYGEFEAKKKK was N-terminal additionally mounted with the spacer amino acids Aminocaprylic acid and Glycin. After cleavage of the N-terminal temporary protecting group the still attached and protected peptide was labeled with a 1.5 fold amount of LightCycler-Red 640-N-hydroxy succinimide ester (purchased from Roche Diagnostics GmbH) and triethylamine. After 3 hrs. the resin was washed with dimethylformamide and isopropanol until the eluates of the blue resin got colourless. […] The substrate was finally isolated by a preparative reverse phase HPLC purification. The purification yielded 12.2 mg RP-HPLC single peak pure blue material (lyophilisate). The identity was proven by MALDI mass spectroscopy [2720.0]. • Enzymes: Upstate Lck (p56^lck, active), Upstate Src (p60^c-src, partially purified) were purchased from UBI. • Homogenous, time-resolved Fluorescence Assay: Reader: Perkin Elmer, Wallac Viktor 1420-040 multilabel counter; Liquid handling system: Beckman Coulter, Biomek 2000. • ATP, Tween 20, HEPES were purchased from Roche Molecular Biochemicals, MgCl2 and MnCl2 were purchased from Merck Eurolab, TCEP was purchased from Pierce, 384 Well low volume fluorescence plates was purchased from Falcon. Assay Description:
At first the enzyme is pre-incubated for 15 min. at 15° C. in aqueous solution with corresponding amounts of inhibitors according to this invention. Then the phosphorylation reaction is started by adding a reaction mixture, containing ATP, Peptide and PT66, and subsequent shaking. The proceeding of this reaction is immediately monitored using time resolved fluorescence spectroscopy in a suitable well plate reader.
The IC50-values can be obtained from the reaction rates by using a non-linear curve fit (Excelfit).

Each structure is given as a SMILES string. pIC50: −log10 of the molar value. Read-outs that look alike come from different tables or passages of the source. Some results are limits rather than exact numbers.

T1 sequence (P12931 whole entry): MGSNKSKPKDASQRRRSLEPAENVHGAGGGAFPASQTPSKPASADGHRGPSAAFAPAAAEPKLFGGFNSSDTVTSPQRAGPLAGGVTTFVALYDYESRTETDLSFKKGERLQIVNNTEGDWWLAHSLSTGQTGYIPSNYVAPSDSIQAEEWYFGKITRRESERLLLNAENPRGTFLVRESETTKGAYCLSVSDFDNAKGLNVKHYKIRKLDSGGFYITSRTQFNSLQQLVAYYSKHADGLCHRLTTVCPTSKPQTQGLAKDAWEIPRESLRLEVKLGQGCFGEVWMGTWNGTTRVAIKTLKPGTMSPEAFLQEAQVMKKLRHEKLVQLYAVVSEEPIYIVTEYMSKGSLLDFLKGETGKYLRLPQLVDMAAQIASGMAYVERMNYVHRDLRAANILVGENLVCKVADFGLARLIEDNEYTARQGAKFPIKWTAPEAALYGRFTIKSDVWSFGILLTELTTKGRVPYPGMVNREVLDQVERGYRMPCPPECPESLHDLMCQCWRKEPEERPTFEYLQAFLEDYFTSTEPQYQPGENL

The term melting point denotes the temperature, or range, at which the solid turns liquid. The term IC50 denotes the concentration that inhibits the measured activity by half. Turning to `COc1ccc(N2C(=O)N(c3cccc(C#N)c3)c3nc(Nc4cccc(CCO)c4)ncc3C2C)cc1` (racemic) [Example 4, (±)-3-[7-[3-(2-hydroxy-ethyl)-phenylamino]-3-(4-methoxy-phenyl)-4-methyl-2-oxo-3,4-dihydro-2H-pyrimido[4,5-d]pyrimidin-1-yl]-benzonitrile], the melting point lay within 195 to 200 °C. The IC50 at Src (p60^c-src) is less than 1 µM.
Taken in the same sequence, the figures for `CCN(CC)CCc1cccc(Nc2ncc3c(n2)N(c2cccc(C#N)c2)C(=O)N(c2ccc(OC)cc2)C3C)c1` (racemic) [Example 5b, (±)-3-[7-[3-(2-diethylamino-ethyl)-phenylamino]-3-(4-methoxy-phenyl)-4-methyl-2-oxo-3,4-dihydro-2H-pyrimido[4,5-d]pyrimidin-1-yl]-benzonitrile] were 128 to 145 °C and less than 1 µM.
For `COc1ccc(N2C(=O)N(c3cccc(C#N)c3)c3nc(Nc4cccc(CCN(C)C)c4)ncc3C2C)cc1` (racemic) [Example 6, (±)-3-[7-[3-(2-dimethylamino-ethyl)-phenylamino]-3-(4-methoxy-phenyl)-4-methyl-2-oxo-3,4-dihydro-2H-pyrimido[4,5-d]pyrimidin-1-yl]-benzonitrile], in that order: 120 to 135 °C and less than 1 µM.
For `COc1ccc(N2C(=O)N(c3cccc(C#N)c3)c3nc(Nc4cccc(CCN5CCN(C)CC5)c4)ncc3C2C)cc1` (racemic) [Example 7, (±)-3-(3-(4-methoxy-phenyl)-4-methyl-7-{3-[2-(4-methyl-piperazin-1-yl)-ethyl]-phenylamino}-2-oxo-3,4-dihydro-2H-pyrimido[4,5-d]pyrimidin-1-yl)-benzonitrile], in that order: 134 to 155 °C and less than 1 µM.
What is called pIC50 is −log10 of the IC50, conventionally taken in molar units. The molecule `CCN(CC)CCc1cccc(Nc2ncc3c(n2)N(c2cccc(C(N)=O)c2)C(=O)N(c2ccc(OC)cc2)C3C)c1` (racemic) [Example 8, (±)-3-[7-[3-(2-diethylamino-ethyl)-phenylamino]-3-(4-methoxy-phenyl)-4-methyl-2-oxo-3,4-dihydro-2H-pyrimido[4,5-d]pyrimidin-1-yl]-benzamide] showed a melting point of 170 to 175 °C. For the same molecule, at Src (p60^c-src), the IC50 is less than 1 µM. Besides, the pIC50 at Src (p60^c-src) (printed at the end of the Example 8 characterisation data, kinase not named at that place, read-out: IC50) is 8.35.
The molecule `COc1ccc(N2C(=O)N(c3cccc(C(N)=O)c3)c3nc(Nc4cccc(CCN(C)C)c4)ncc3C2C)cc1` (racemic) [Example 9, (±)-3-[7-[3-(2-dimethylamino-ethyl)-phenylamino]-3-(4-methoxy-phenyl)-4-methyl-2-oxo-3,4-dihydro-2H-pyrimido[4,5-d]pyrimidin-1-yl]-benzamide] displayed a melting point of 215 to 230 °C. Further, the IC50 on Src (p60^c-src) is less than 1 µM.
For `COc1ccc(N2C(=O)N(c3cccc(C(N)=O)c3)c3nc(Nc4cccc(CCN5CCN(C)CC5)c4)ncc3C2C)cc1` (racemic) [Example 10, (±)-3-(3-(4-methoxy-phenyl)-4-methyl-7-{3-[2-(4-methyl-piperazin-1-yl)-ethyl]-phenylamino}-2-oxo-3,4-dihydro-2H-pyrimido[4,5-d]pyrimidin-1-yl)-benzamide], in that order: 243 to 251 °C and less than 1 µM.
